Measurements from US20080139673A1, “POTENTIATION OF ANTIFUNGAL COMPOUNDS” (MethylGene Inc., priority 2006, published 2008).
Read-outs that look alike come from different tables or passages of the source.

Experiments:
HosB = details: cited from earlier work
ScHOS2 deletion mutant = experiment: Serial dilution sensitivity of yeast deletion strain to antifungal agents; assay type: cell-based, S. cerevisiae; details: FIGS. 4-12
Excerpt: (§1) Standard serial dilution techniques were used to determine sensitivity of yeast deletion strains to various antifungal agents.

recombinant Hos2p.V5His6 = target: T1, recombinant Hos2p.V5His6 (Saccharomyces cerevisiae, UniProt P53096); experiment: HDAC assay with purified recombinant Hos2p.V5His6 fractions; assay type: biochemical, S. cerevisiae; details: for IC50: read-out: IC50 (ug/ml)
T1 construct: YGL194C/HOS2 from S. cerevisiae (residues 1-452 upstream the stop codon); made in house; host or cells: S. cerevisiae BY4742 or isogenic Δhos2 strain carrying pYES2.1.HOS2.V5His6 #7, galactose-induced
Description: The induction of Hos2p.V5His6 expression by galactose was performed using either glucose or raffinose as the carbon source (pYES2.1 TOPO TA Expression Kit Manual, Invitrogen, cat. # K4150-01), Cell lysates were prepared from spheroplasts that had been generated from strains BY4742/pYES2.1.HOS2.V5His6 # 7 and Δhos2/pYES2.1.HOS2.V5His6 #7 grown in the presence or in the absence of galactose. Spheroplasts were prepared from cells that were grown in YEPD (BY4742, Δhos2), SC-URA+2% glucose or raffinose or SC-URA+1% glucose or raffinose+1% galactose (BY4742/pYES2.1.HOS2.V5His6 # 7 and Δhos2/pYES2.1.HOS2.V5His6 #7) by the lyticase method of Franzusoff et al. (1991). The collection of fractions containing or not Hos2pV5His6 was performed by IMAC using the H is GraviTrap Affinity Columns (GE Healthcare cat. # 11-033-99). Binding buffer was as recommended by the manufacturer, whereas three different elution buffers were used sequentially: 20 mM sodium phosphate+500 mM NaCl+100 mM, 250 mM or 500 mM imidazole, pH 7.4. Fractions were further desalted using PD-10 (GE Healthcare, cat. # 17-0851-01) and NAP-5 (GE Healthcare, cat. # 17-0853-02) desalting columns. Fractions that were eluted with the three different buffers containing 100, 250 or 500 mM imidazole, pH 7.4 and desalted were assayed for HDAC activity (see below). Only the corresponding fractions containing significant intrinsic HDAC activity (20 mM sodium phosphate+500 mM NaCl+250 mM imidazole) were kept for further studies.
Fractions containing the recombinant Hos2p.V5His6 were incubated for 2 h with or without HDAC inhibitor (0-20 μg/ml). The HDAC activity that was specifically associated with the recombinant Hos2p.V5His6 expressed following galactose induction was determined assuming that
FluoHos2p.V5His6 specific=Fluo+galactose−Fluo−galactose
where Fluo+galactose=HDAC activity associated with all HDACs copurified along with Hos2p.V5His6 Fluo+glucose=HDAC activity associated with all HDACs copurified in the absence of Hos2p.V5His6

[1] = system: WT/ScHOS2 and Δhos2/ScHOS2; experiment: MIC80 testing (CLSI M27-A2), complementation of Δhos2 by recombinant ScHos2p; assay type: cell-based, S. cerevisiae; details: 72 hours, 30° C., FIG. 14
Description: Minimum inhibitory concentration (MIC) testing was performed according to CLSI M27-A2 method for yeast testing using CSM-URA medium (Complete Synthetic Medium minus Uracile) containing either 2% raffinose or 1% raffinose+1% galactose as the carbon source. Itraconazole concentrations ranged from […]. Log-phase cells grown in CSM-URA+2% raffinose or CSM-URA+1% raffinose+1% galactose were inoculated at 5×10^3 cells/ml. The MIC80 of itraconazole was determined after 72 hours growth at 30° C.

ScRPD3 deletion mutant = experiment: Serial dilution sensitivity of yeast deletion strain to antifungal agents; assay type: cell-based, S. cerevisiae; details: FIG. 3
Excerpt: as §1

A. nidulans Hda1 enzyme = details: cited from earlier work
C. albicans = details: cited from earlier work
Candida glabrata = details: cited from earlier work

T1 sequence (P53096 whole entry, the tested form may be a part): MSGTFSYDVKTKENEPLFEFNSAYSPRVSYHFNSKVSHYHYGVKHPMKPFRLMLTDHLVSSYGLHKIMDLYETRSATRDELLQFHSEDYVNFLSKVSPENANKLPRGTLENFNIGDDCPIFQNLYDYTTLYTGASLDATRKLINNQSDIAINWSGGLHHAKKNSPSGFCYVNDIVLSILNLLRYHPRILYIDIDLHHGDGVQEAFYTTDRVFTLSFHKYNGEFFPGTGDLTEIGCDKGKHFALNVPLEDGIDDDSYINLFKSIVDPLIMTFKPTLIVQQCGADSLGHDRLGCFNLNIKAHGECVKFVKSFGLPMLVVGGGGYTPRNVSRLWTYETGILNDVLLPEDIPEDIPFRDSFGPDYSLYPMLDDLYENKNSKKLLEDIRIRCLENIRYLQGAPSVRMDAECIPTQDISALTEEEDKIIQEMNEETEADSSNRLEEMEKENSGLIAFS

For `C[C@@H]1NC(=O)[C@H]2CCCN2C(=O)[C@H](CCCCCC(=O)[C@@H]2CO2)NC(=O)[C@@H](C)NC1=O` [HC toxin], the “sensitivity of the enzyme to the HDAC inhibitor” value (HosB) is given as “highly resistant”.

In the case of `Nc1nc(=O)[nH]cc1F` [5-fluorocytosine], the “hypersensitivity of ScHOS2 deletion mutant to antifungal agent” value (ScHOS2 deletion mutant) is reported as “not hypersensitive”.

In the case of `C[C@@H]1[C@H](O)[C@@H](C)/C=C/C=C/C=C/C=C/C=C/C=C/C=C/[C@H](O[C@@H]2O[C@H](C)[C@@H](O)[C@H](N)[C@@H]2O)C[C@@H]2O[C@](O)(C[C@@H](O)C[C@@H](O)[C@H](O)CC[C@@H](O)C[C@@H](O)CC(=O)O[C@H]1C)C[C@H](O)[C@H]2C(=O)O` [Amphotericin B], the “hypersensitivity of ScHOS2 deletion mutant to antifungal agent” value (ScHOS2 deletion mutant) is reported as “not hypersensitive”.

In the case of `C[C@@H](c1ncncc1F)[C@](O)(Cn1cncn1)c1ccc(F)cc1F` [voriconazole], the “hypersensitivity of ScHOS2 deletion mutant to antifungal agent” value (ScHOS2 deletion mutant) is reported as “hypersensitive”.

Work on `O=C(Cc1ccc(CCCCc2ccccc2)cc1)NO` [Compound 4] yielded an IC50 (recombinant Hos2p.V5His6; Hos2 from S. cerevisiae BY4742/HOS2.V5His6 grown in glucose (GAL1 repressed) or galactose (induced)) of ~14.1 µM, an IC50 (recombinant Hos2p.V5His6; Hos2 from S. cerevisiae BY4742/HOS2.V5His6 grown in raffinose (GAL1 repressed) or galactose (induced)) of ~10.6 µM and an inhibition at 5 µg/mL (recombinant Hos2p.V5His6; read-out: % inhibition at 5 μg/ml, Hos2 from S. cerevisiae BY4742/HOS2.V5His6 grown in glucose (GAL1 repressed) or galactose (induced), 5 μg/ml, 2 h) of 60.7%. It also gave an inhibition at 5 µg/mL (recombinant Hos2p.V5His6; read-out: % inhibition at 5 μg/ml, Hos2 from S. cerevisiae BY4742/HOS2.V5His6 grown in raffinose (GAL1 repressed) or galactose (induced), 5 μg/ml, 2 h) of 61.2%, an inhibition at 5 µg/mL (recombinant Hos2p.V5His6; read-out: % inhibition at 5 μg/ml, Hos2 from S. cerevisiae Δhos2/HOS2.V5His6 grown in glucose (GAL1 repressed) or galactose (induced), 5 μg/ml, 2 h) of 55.2% and an IC50 (recombinant Hos2p.V5His6; Hos2 from S. cerevisiae Δhos2/HOS2.V5His6 grown in glucose (GAL1 repressed) or galactose (induced)) of ~15.9 µM. The inhibition at 5 µg/mL (recombinant Hos2p.V5His6; read-out: inhibition of purified Hos2 protein, 5 ug/ml, summary of Table 1) was > 60%.

In the case of `CC(Cc1ccc(C(C)(C)C)cc1)CN1C[C@@H](C)O[C@@H](C)C1` (stereo partly drawn) [fenpropimorph], the “hypersensitivity of ScHOS2 deletion mutant to antifungal agent” value (ScHOS2 deletion mutant) is reported as “hypersensitive”.

In the case of `CCC(C)n1ncn(-c2ccc(N3CCN(c4ccc(OCC5COC(Cn6cncn6)(c6ccc(Cl)cc6Cl)O5)cc4)CC3)cc2)c1=O` (stereo not drawn) [itraconazole], the “difference in sensitivity (MIC80) between WT/ScHOS2 and Δhos2/ScHOS2” value ([1]; expression of Hos2 induced by galactose) is reported as 2 fold and the “difference in sensitivity (MIC80) between WT/ScHOS2 and Δhos2/ScHOS2” value ([1]; grown in the presence of raffinose) is reported as 4 fold.

In the case of `C[C@@H]([C@H](N)C(=O)N[C@H](C(=O)O)[C@H]1O[C@@H](n2ccc(=O)[nH]c2=O)[C@H](O)[C@@H]1O)[C@H](O)c1ccc(O)cn1` [nikkomycin], the “hypersensitivity of ScHOS2 deletion mutant to antifungal agent” value (ScHOS2 deletion mutant) is reported as “not hypersensitive”.

With `OC(Cn1cncn1)(Cn1cncn1)c1ccc(F)cc1F` [fluconazole] the “hypersensitivity of ScRPD3 deletion mutant to antifungal agent” value (ScRPD3 deletion mutant) was “not hypersensitive” and the “hypersensitivity of ScHOS2 deletion mutant to antifungal agent” value (ScHOS2 deletion mutant) was “hypersensitive”.

In the case of `CC(/C=C/C(=O)NO)=C\[C@@H](C)C(=O)c1ccc(N(C)C)cc1` [TSA, trichostatin A], the “sensitivity of the enzyme to the HDAC inhibitor” value (A. nidulans Hda1 enzyme) is listed as “highly sensitive”, the “ability to enhance the sensitivity to azole antifungal agents” value (C. albicans) is listed as “able to enhance the sensitivity” and the “sensitivity of the enzyme to the HDAC inhibitor” value (HosB) is listed as “highly resistant”. The “ability to enhance the sensitivity to azole antifungal agents” value (Candida glabrata) was “not found to enhance the sensitivity”.

With `CN(C/C=C/C#CC(C)(C)C)Cc1cccc2ccccc12` [terbinazine] the “hypersensitivity of ScHOS2 deletion mutant to antifungal agent” value (ScHOS2 deletion mutant) was “not hypersensitive”.

In the case of `CC(=O)N1CCN(c2ccc(OCC3COC(Cn4ccnc4)(c4ccc(Cl)cc4Cl)O3)cc2)CC1` (stereo not drawn) [ketoconazole], the “hypersensitivity of ScRPD3 deletion mutant to antifungal agent” value (ScRPD3 deletion mutant) is reported as “not hypersensitive” and the “hypersensitivity of ScHOS2 deletion mutant to antifungal agent” value (ScHOS2 deletion mutant) is reported as “hypersensitive”.
